pIC50: −log10 of the molar value.
Biological target: T1, human Plk4 kinase domain (aa 2-275) (Homo sapiens, UniProt O00444)
T1 construct: purified 6×His-tagged human Plk4 kinase domain (aa 2-275); 6xHis; made in house; host or cells: E. coli
T1 sequence (O00444 2-275): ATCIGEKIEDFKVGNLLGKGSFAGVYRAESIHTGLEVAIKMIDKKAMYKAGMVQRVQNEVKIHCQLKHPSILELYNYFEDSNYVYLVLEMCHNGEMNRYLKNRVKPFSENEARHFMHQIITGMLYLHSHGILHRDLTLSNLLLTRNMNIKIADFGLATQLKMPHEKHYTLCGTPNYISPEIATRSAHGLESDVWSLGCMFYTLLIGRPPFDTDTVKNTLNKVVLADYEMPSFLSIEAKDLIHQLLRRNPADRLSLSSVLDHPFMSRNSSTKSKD
Test: Plk4 kinase assay (ADP-Glo)
Assay type: biochemical
Settings: Table 1
Summary of the method: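 Enzyme at 2.5-10 nM final, pH 8.0, reacted 4-16 hours at 25° C; ADP generation read by ADP-Glo luminescence. Ki derived from IC50 by Cheng-Prusoff or, for tight binders, Copeland formalism.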

SMILES | pIC50
COCCNc1nc(Sc2ccc(NC(=O)C3CC3)cc2)nc(Nc2cc(C)[nH]n2)c1OC | > 6.00
COc1c(NCCN(C)C)nc(Sc2ccc(NC(=O)C3CC3)cc2)nc1Nc1cc(C)[nH]n1 | 6.00 to 7.00
COc1c(Nc2cc(C)[nH]n2)nc(Sc2ccc(NC(=O)C3CC3)cc2)nc1N(C)CCN(C)C | 6.00 to 7.00
COC(=O)c1cccc(CS(=O)(=O)c2ccc(Sc3nc(Nc4cc(C)[nH]n4)c(OC)c(N4CCN(CCN(C)C)CC4)n3)cc2)c1 | > 6.00
COc1c(Nc2cc(C)[nH]n2)nc(Sc2ccc(S(=O)(=O)Cc3cccc(C(N)=O)c3)cc2)nc1N1CCN(CCN(C)C)CC1 | > 6.00
COc1c(Nc2cc(C)[nH]n2)nc(Sc2ccc(S(=O)(=O)Cc3ccccc3NC(C)=O)cc2)nc1N1CCN(CCN(C)C)CC1 | > 6.00
COc1c(Nc2cc(C)[nH]n2)nc(Sc2ccc(S(=O)(=O)Cc3ccccc3C(F)(F)F)cc2)nc1N1CCN(CCN(C)C)CC1 | > 6.00
COc1c(Nc2cc(C)[nH]n2)nc(Sc2ccc(S(=O)(=O)Cc3ccccc3N(C)C)cc2)nc1N1CCN(CCN(C)C)CC1 | > 6.00
COc1c(Nc2cc(C)[nH]n2)nc(Sc2ccc(S(=O)(=O)Cc3ccccc3-c3ccccc3)cc2)nc1N1CCN(CCN(C)C)CC1 | > 6.00
COc1c(Nc2cc(C)[nH]n2)nc(Sc2ccc(S(=O)(=O)Cc3cccc(NC(C)=O)c3)cc2)nc1N1CCN(CCN(C)C)CC1 | > 6.00
COC(=O)c1ccccc1CS(=O)(=O)c1ccc(Sc2nc(Nc3cc(C)[nH]n3)c(OC)c(N3CCN(CCN(C)C)CC3)n2)cc1 | > 6.00
COc1c(Nc2cc(C)[nH]n2)nc(Sc2ccc(S(=O)(=O)Cc3ccccc3C(=O)N(C)C)cc2)nc1N1CCN(CCN(C)C)CC1 | > 6.00
COc1c(Nc2cc(C)[nH]n2)nc(Sc2ccc(S(=O)(=O)Cc3cccc([N+](=O)[O-])c3F)cc2)nc1N1CCCCC1 | > 6.00
COc1c(Nc2cc(C)[nH]n2)nc(Sc2ccc(S(=O)(=O)Cc3cccc([N+](=O)[O-])c3F)cc2)nc1N1CCOCC1 | > 6.00

The next lines start with the values.

pIC50 | SMILES
> 6.00 | COc1c(Nc2cc(C)[nH]n2)nc(Sc2ccc(NC(=O)C3CC3)cc2)nc1N1CCNCC1
6.00 to 7.00 | COc1c(Nc2cc(C)[nH]n2)nc(Sc2ccc(NC(=O)C3CC3)cc2)nc1N(C)C(C)C
6.00 to 7.00 | CNCCN(C)c1nc(Sc2ccc(NC(=O)C3CC3)cc2)nc(Nc2cc(C)[nH]n2)c1OC
> 6.00 | COc1c(Nc2cc(C)[nH]n2)nc(Sc2ccc(S(=O)(=O)Cc3ccccc3)cc2)nc1N1CCN(CCN2CCC2)CC1
> 6.00 | COc1c(Nc2cc(C)[nH]n2)nc(Sc2ccc(S(=O)(=O)Cc3ccccc3C#N)cc2)nc1N1CCN(CCN(C)C)CC1
> 6.00 | COc1c(Nc2cc(C)[nH]n2)nc(Sc2ccc(S(=O)(=O)Cc3cccc(C(=O)N(C)C)c3)cc2)nc1N1CCN(CCN(C)C)CC1
> 6.00 | COc1c(Nc2cc(C)[nH]n2)nc(Sc2ccc(S(=O)(=O)Cc3ccccc3C(N)=O)cc2)nc1N1CCN(CCN(C)C)CC1
> 6.00 | COc1c(Nc2cc(C)[nH]n2)nc(Sc2ccc(S(=O)(=O)Cc3ccccc3)cc2)nc1N1CCC(CCC23CC4CCC(C2)N43)CC1 (stereo not shown)
> 6.00 | COc1c(Nc2cc(C)[nH]n2)nc(Sc2ccc(S(=O)(=O)Cc3cccc([N+](=O)[O-])c3)cc2)nc1N1CCOC[C@H]1C
> 6.00 | COc1c(Nc2cc(C)[nH]n2)nc(Sc2ccc(S(=O)(=O)Cc3ccccc3)cc2)nc1N1CCN(C2CCNCC2)CC1
> 6.00 | COc1c(Nc2cc(C)[nH]n2)nc(Sc2ccc(S(=O)(=O)Cc3ccccc3)cc2Cl)nc1N1CCN(CCN(C)C)CC1
> 6.00 | COc1c(Nc2cc(C)[nH]n2)nc(Sc2ccc(S(=O)(=O)Cc3cccc([N+](=O)[O-])c3)cc2)nc1N1CCO[C@H](C)C1
> 6.00 | COc1c(Nc2cc(C)[nH]n2)nc(Sc2ccc(S(=O)(=O)Cc3cccc([N+](=O)[O-])c3)cc2)nc1N1CCO[C@@H](C)C1
> 6.00 | COc1c(Nc2cc(C)[nH]n2)nc(Sc2ccc(S(=O)(=O)Cc3cccc(N(C)C)c3)cc2)nc1N1CCN(CCN(C)C)CC1
> 6.00 | COc1c(Nc2cc(C)[nH]n2)nc(Sc2ccc(S(=O)(=O)Cc3cccc(C(=O)O)c3)cc2)nc1N1CCN(CCN(C)C)CC1
> 6.00 | COc1c(Nc2cc(C)[nH]n2)nc(Sc2ccc(S(=O)(=O)Cc3ccccc3C(=O)O)cc2)nc1N1CCN(CCN(C)C)CC1
> 6.00 | COc1ccc([N+](=O)[O-])cc1CS(=O)(=O)c1ccc(Sc2nc(Nc3cc(C)[nH]n3)c(OC)c(N3CCN(CCN(C)C)CC3)n2)cc1
> 6.00 | COc1c(CS(=O)(=O)c2ccc(Sc3nc(Nc4cc(C)[nH]n4)c(OC)c(N4CCN(CCN(C)C)CC4)n3)cc2)cccc1[N+](=O)[O-]
> 6.00 | COc1c(Nc2cc(C)[nH]n2)nc(Sc2ccc(S(=O)(=O)Cc3cc([N+](=O)[O-])ccc3F)cc2)nc1N1CCN(CCN(C)C)CC1
> 6.00 | COc1c(Nc2cc(C)[nH]n2)nc(Sc2ccc(S(=O)(=O)Cc3cccc([N+](=O)[O-])c3)cc2F)nc1N1CCN(CCN(C)C)CC1
